Data published in US20050113443A1, “Modulation of airway inflammation in patients with cystic fibrosis and related diseases” (priority 2003, published 2005).

Legend:
[1] = tested on: C57BL/6 mice challenged intratracheally with mucoid P. aeruginosa (strain M57-15); experiment: Mouse model of chronic airway inflammation and infection of cystic fibrosis (mucoid P. aeruginosa entrapped in agarose beads); type: in vivo; conditions: vs vehicle controls
Source text: Chronic infections with mucoid P. aeruginosa tend to persist in patients with CF. In turn, chronic airway infection with mucoid P. aeruginosa is a major cause of morbidity and mortality among CF patients. In order to achieve chronic airway infections with P. aeruginosa in murine models, it is necessary to enmesh the bacteria with an immobilizing agent such as agar (Pediatr Pulmonol 30:413.; Lab Animals 36:291). This also provides an experimental mimic of the growth of P. aeruginosa as a biofilm, which appears to be its predominant state in the CF airway (Pediatr Pulmonol 30:413, 2000; Pediatr Res 22:698, 1987; Trends Microbiol 9:50, 2001). C57/B16 mice are used, as the inflammatory response to P. aeruginosa infection of this moderately susceptible strain is a fair mimic of that seen in CF patients (Pediatr Pulmonol 30:413). Indeed, in C57/B16 mice, agar bead delivery of P. aeruginosa leads to histopathological changes, including bronchiectasis, similar to those found in patients with CF (Pediatr Pulmonol 30:413, 2000). This chronic model allows for the characterization of the effects of LX analogues on chronic, ongoing airway infection and inflammation using a model that is highly relevant to, and a reasonable mimic of, the CF airway.
Modifications were made in a previously described model (van Heeckeren, A. M. etal Lab Anim 36, 291, 2002). 6-8 week old female C57BL/6 mice were immunized in the dermis of the ear with heat-killed P. aeruginosa (mucoid strain M57-15) in incomplete Freund's adjuvant 10 days prior to P. aeruginosalagar bead challenge. Mice were challenged intratracheally (non-traumatically as previously described, Wills-Karp, M. et al. Science 282, 2258, 1998) with 3×10^4 P. aeruginosa (mucoid strain M57-15) entrapped in […] agarose beads. Beginning 1 day prior to such challenge, mice were treated with an LXA4 analogue (15-epi-16-[p-fluorophenoxy LXA4] methyl ester) by oral administration, through placing 10 μg/ml of the analogue in the drinking water (Gewirtz, A. T. et al. J Immunol 168, 5260, 2002), supplemented with a single daily intravenous dose of 1 μg by tail vein. Controls received trace volumes (identical to that administered to lipoxin analogue-treated mice) of ethanol in drinking water and intravenously. Mice were weighed daily. Five days after P. aeruginosa/agar bead challenge, mice were sacrificed, BAL was performed, and lungs were harvested for measurement of lung Pseudomonas burden and myeloperoxidase by standard techniques (van Heeckeren, A. M. et al Lab Anim 36, 291, 2002; Wills-Karp, M. et al. Science 282, 2258, 1998; Andrews, P. C. et al. Anal Biochem 127, 346, 1982). Animal care was provided in accordance with National Institutes of Health guidelines. This was done in order to model an additional immunological feature of individuals with cystic fibrosis and P. aeruginosa colonization/infection: potent adaptive immune responses, marked by anti-pseudomonal antibodies and T cells reactive with pseudomonal proteins.
C57/B16 mice were challenged intratracheally (non-traumatically as previously described [Science 282:2258, 1998; Nature Immunol 1:221,2000]) with 3×10^4 P. aeruginosa (mucoid strain M57-15) entrapped in agar beads (70-200 uM). […]

[2] = tested on: primary human bronchial epithelial cells; experiment: P. aeruginosa-induced IL-8 secretion by primary human bronchial epithelial cells (ELISA); type: cell-based; conditions: cells treated 2 h with analogue (nanomolar concentrations), stimulated 1 h with 3×10^7 cfu P. aeruginosa PA01, supernatants after 4 more hours, vs vehicle (0.01% ethanol), FIG. 2, P<0.002
Description: We further examined whether LX analogues were able to inhibit P. aeruginosa-induced IL 8 production from primary human bronchial epithelial cells. Primary bronchial epithelial cells from non-smokers obtained from Clonetics/Cambrex were grown until subconfluent, treated for 2 h with LXA4 analogue or vehicle control (0.01% ethanol), stimulated for 1 h with 3×10^7 cfu of P. aeruginosa strain PA01, and subsequently washed. Cell-free supernatants were harvested after 4 more hours of incubation, and analyzed by ELISA for IL-8 secretion. For this purpose we used the metabolically stable analog 15-epi-16-(p-fluorophenoxy) LXA4 methyl ester, prepared according to Example 2. […] Primary human bronchial epithelial cells were pretreated with an LXA4 analogue (15-epi-16-[p-fluorophenoxy LXA4] methyl ester) or vehicle control and subsequently stimulated with P. aeruginosa strain PA01. IL-8 was measured in cell-free supernatants. Mean IL-8 production was 1620±116 pg/ml in vehicle control cultures.

**Q.** With `COC(=O)CCC[C@H](O)[C@H](O)/C=C/C=C/C=C\C=C\[C@H](O)COc1ccc(F)cc1` [(5S, 6R, 15S)-trihydroxy-16-(4-fluorophenoxy)-hexadeca-(7E, 9E, 11Z,13E)-tetraenoic acid methyl ester] as the compound, how does the weight loss ([1]; 10 μg/ml in drinking water plus 1 μg i.v. daily from 1 day before challenge, weighed daily, FIG. 3) read?
**A.** Its weight loss is “less weight loss”.

**Q.** And the “recovery of lost weight” value ([1]; 10 μg/ml in drinking water plus 1 μg i.v. daily, weighed daily, FIG. 3)?
**A.** Its value is “earlier and more complete recovery of lost weight”.

**Q.** And the “bronchoalveolar lavage total cell counts” value ([1]; BAL five days after challenge, FIG. 4A)?
**A.** The value was “significant suppression of total cell counts”.

**Q.** And the “airway neutrophilia (BAL neutrophils)” value ([1]; BAL five days after challenge, FIG. 4B)?
**A.** The value was “significant inhibition of airway neutrophilia”.

**Q.** And the airway lymphocyte counts ([1]; BAL five days after challenge, FIG. 4C)?
**A.** The airway lymphocyte counts was “significant increase in airway lymphocyte counts”.

**Q.** And the “percentage of airway macrophages” value ([1]; BAL five days after challenge, FIG. 4D)?
**A.** The value was “increase in the percentage of airway macrophages”.

**Q.** What about the “neutrophil/lymphocyte ratio in the airway” value ([1]; BAL five days after challenge, FIG. 4E) of the same compound?
**A.** Its value is “significant decrease”.

**Q.** And the “neutrophil/macrophage ratio in the airway” value ([1]; BAL five days after challenge, FIG. 4F)?
**A.** Its value is “significant decrease”.

**Q.** What about the “whole lung P. aeruginosa burden” value ([1]; lungs harvested five days after challenge, quantitative microbiological techniques, FIG. 6) of the same compound?
**A.** The value was “decrease in lung bacterial burden”.

**Q.** What about the “whole lung myeloperoxidase levels (neutrophil accumulation in the lung parenchyma)” value ([1]; lungs harvested five days after challenge, FIG. 5) of the same compound?
**A.** The value was “significantly reduced neutrophil accumulation in the lung parenchyma”.

**Q.** And the “P. aeruginosa-mediated IL-8 secretion” value [2]?
**A.** Its value is “inhibits”.

**Q.** What about the “P. aeruginosa-mediated IL-8 secretion” value ([2]; listed as LXA4 analogue) of the same compound?
**A.** Its value is “significantly inhibits”.
